We go through 6 compounds from patent publication US9784746B2, “Method for studying transport of an agent across a bilayer membrane in bioanalytical sensor applications” (Bio-Rad Laboratories, Inc., priority 2008, dated 2017).

A short description of data set [1]: Melittin binding to tethered POPC liposomes (Biacore SPR). The method, then: Liposomes were made by first evaporating the solvent, chloroform, from the POPC lipids using a flow of nitrogen gas. The dried lipids were then kept under the flow of nitrogen gas for at least one hour after which HEPES-2 was added to yield a 4 mg/ml concentration of POPC. The dissolved POPC lipids were vortexed for at least 30 min to yield multi-laminar liposomes. Uni-laminar liposomes were produced using a mini extruder and polycarbonate membranes with pore size of 50 nm from Avanti Polar Lipids® with a 50 nm pore size. […] The liposomes were stored under nitrogen gas at 4° C. until use (within 2 days).
A mixture (300 μl) of HS-PEG (200 μg/ml) and HS-PEG-Biotin (20 μg/ml), dissolved in HEPES-2, were injected over the Biacore® Au sensor chip at a flow rate of 5 μl/min. Then a mixture (150 μl) of NeutrAvidin (40 μg/ml) and Biotin-DNA (0.7 μM) was injected and bound to HS-PEG-Biotin at the surface.
POPC liposomes (2 mg/ml, in HEPES-2) containing cholesterol-DNA tags (3 DNA tags per liposome) were injected at a flow rate of 5 μl/min. The end of the DNA-part of the cholesterol-DNA tag is single-stranded and complementary in sequence to the Biotin-DNA at the surface enabling tethering of the liposomes to the sensor surface.
The reversible binding of melittin was measured in the Biacore® instrument directly after the tethering of POPC liposomes was finished. Melittin solutions at a concentration of 0.5-40 μM in HEPES-2 were injected in sequence. During injection the melittin molecules bind to the liposomes and after the injection is terminated, running buffer (HEPES-2) flows over the surface and melittin dissociates. After the dissociation was complete a new melittin solution of different concentration was injected.
Melittin solutions of various concentrations (0.5-40 μM) were injected over the bound liposomes in the Biacore® instrument at 5 μl/min. The change in response (RU) as a function of time (t) was fitted to RU=RU0+RU1*(1−exp(−t/τ1))+RU2*(1−exp(−t/τ2)). However, the change in RU during the injection of 0.5 μM melittin could be described using only one exponential (i.e. RU2=0). It is known that high concentrations of melittin can rupture cells and liposomes. Unspecific binding (i.e. binding to the biosensor surface without liposomes) of melittin was small, less than 5% of the binding of melittin to the liposome membrane surface (data not shown).

Data set [2] is described as follows: Membrane transport of ions across gramicidin-containing liposomes (SPR). It is filed as physicochemical. As to conditions: gramicidin incorporated for K+ co-transport; FIG. 7. The source says: Information of this type is of high relevance in studies on how, for example, drugs influence the permeability of cell-membranes. Both passive and membrane-protein mediated transfer of uncharged solutes is of high biological and pharmaceutical relevance. However, for a method like this to be generically applicable for any type of membrane transport reaction, also ion translocation should be possible to measure, which is today typically measured using patch-clamp based assays. FIG. 7 illustrates membrane transport of iodide (˜10 s) and chloride (˜200 s) ions, in excellent agreement with literature data. Note that gramicidin was incorporated into the liposomes in order to ensure co-transport of counter ions (K+), thus prohibiting the establishment of an electrostatic transmembrane potential that would otherwise restrict the unhindered transport of anions.

Data set [3] can be described thus: Melittin pore mediated sucrose uptake into tethered liposomes (SPR refractive index). It is filed as physicochemical. The method, then: After tethering of NeutrAvidin/Biotin-DNA the following injections were made in sequential order; 0.1 M sucrose, 2 mg/ml cholesterol-DNA tagged POPC-liposomes, 0.1 M sucrose, 40 μM melittin, 0.1 M sucrose, 0.1 M sucrose, 0.1 M sucrose. All samples were dissolved in HEPES-2.
A simple method for real-time and label-free uptake measurements of analytes across membranes at a biosensor surface would be of great value when investigating for example membrane transporters. Here we wanted to test if it was possible to measure the uptake of an analyte, sucrose, through the melittin pore by simply detecting the change in refractive index of the solution inside the liposome caused by the analyte as it is taken up.
Adding sucrose changes the refractive index of the solution in the detection volume, i.e. the volume corresponding to the evanescent field above the sensor surface, which is manifested as a shift in RU. […]
The amplitude of the uptake decrease from S3 to S5, which is explained by a decreasing number of liposomes having pores. […] The expected RU of the 7400 sucrose molecules (0.1 M) inside the liposome can be calculated from the obtained response of immobilizing the liposome itself (RU=6790). […] Since only ˜85% of the liposomes have pores the expected value is 480/0.85≈560 RU, which is in good agreement with the measured response of 530 RU from the S3 injection.

Data set [4] can be described thus: Cyclodextrin removal of cholesterol from liposome bilayer (SPR). The note with it: after seven injections; start 40% cholesterol. The source says: 70 nm liposomes containing 40% cholesterol were provided in accordance with Example 1. Binding of the liposomes followed by repeated injection cyclodextrin, which removes cholesterol from the lipid bilyaer of the liposomes is shown in FIG. 6a. The SPR response is proportional to the interfacial refractive index, which makes it possible to quantify the removal of cholesterol. After seven injections of cyclodextrin, the cholesterol content was reduced to 14%.

Data set [5] is described as follows: Glycerol transport across liposome membrane versus cholesterol content (SPR). It is filed as physicochemical. The method, then:
At first 70 nm liposomes were provided in accordance with Example 1. […] Also shown in FIG. 4b (dashed curve) is an identical rinsing step without immobilized liposomes, illustrating that the time constant of the fluidic exchange is faster than 100 ms, which is sufficient to temporally resolve these transport measurements. The rate of glycerol release was examined in a temperature interval from 8 to 22° C. […] In agreement with expectations, the rate of transport across the lipid membrane increases with increasing temperature, and Arrhenius plots display a linear dependence between ln(1/) and 1/T, yielding activation energies in excellent agreement with literature data for the three solutes (glycerol, urea and hydroxyurea) investigated, see FIG. 5b.
70 nm liposomes containing 40% cholesterol were provided in accordance with Example 1. Binding of the liposomes followed by repeated injection cyclodextrin, which removes cholesterol from the lipid bilyaer of the liposomes is shown in FIG. 6a. The SPR response is proportional to the interfacial refractive index, which makes it possible to quantify the removal of cholesterol. […]
Each injection of cyclodextrin (FIG. 6a) was followed by an injection pulse of glycerol, which enabled the time constant of glycerol transport versus cholesterol content to be quantified, ranging from around 7 s at 40% cholesterol to 1 s at 14% cholesterol, see FIG. 6b. […]

[6] abbreviates: outer membrane, fast phase, fit of k1 vs [Mel]B, 0.5-40 μM, HEPES-2.

On to `CC[C@H](C)[C@H](NC(=O)CN)C(=O)NCC(=O)N[C@@H](C)C(=O)N[C@H](C(=O)N[C@@H](CC(C)C)C(=O)N[C@@H](CCCCN)C(=O)N[C@H](C(=O)N[C@@H](CC(C)C)C(=O)N[C@H](C(=O)N[C@H](C(=O)NCC(=O)N[C@@H](CC(C)C)C(=O)N1CCC[C@H]1C(=O)N[C@@H](C)C(=O)N[C@@H](CC(C)C)C(=O)N[C@H](C(=O)N[C@@H](CO)C(=O)N[C@@H](Cc1c[nH]c2ccccc12)C(=O)N[C@H](C(=O)N[C@@H](CCCCN)C(=O)N[C@@H](CCCNC(=N)N)C(=O)N[C@@H](CCCCN)C(=O)N[C@@H](CCCNC(=N)N)C(=O)N[C@@H](CCC(N)=O)C(=O)N[C@@H](CCC(N)=O)C(N)=O)[C@@H](C)CC)[C@@H](C)CC)[C@@H](C)O)[C@@H](C)O)C(C)C)C(C)C` [melittin], for which, in data set [1] (linear fit of k2 vs [Mel]B), the “k+2 (apparent, slower kinetic phase, binding to inner membrane)” value amounted to 56 M⁻¹ s⁻¹ and the “k−2 (slower kinetic phase, binding to inner membrane)” value was 0.0046 s⁻¹. For the same compound, in data set [1] (setting [6]), the “microscopic off-rate k−1 of melittin with the liposome membrane surface” value is 0.032 s⁻¹ and the “microscopic on-rate k+1 of melittin with the liposome membrane surface” value was 3684 M⁻¹ s⁻¹.

As for `Cl` [chloride], the membrane transport time in data set [2] is given as roughly 200 s.

For the compound `OC[C@H]1O[C@@](CO)(O[C@H]2O[C@H](CO)[C@@H](O)[C@H](O)[C@H]2O)[C@@H](O)[C@@H]1O` [sucrose], the “decay time for uptake of sucrose τ3” value in data set [3] (0.1 M sucrose after 40 μM melittin (S3), estimated from FIG. 3) is “≈ 20 sec”. Further, the “number of sucrose molecules that cross the membrane per liposome” value in data set [3] (in ˜20 sec, inside concentration 0.1 M) is on record as roughly 7400.

On to cyclodextrin, for which the “cholesterol content of liposomes after cyclodextrin” value in data set [4] is 14%.

In data set [2], `I` [iodide] registered a membrane transport time of roughly 10 s.

`OCC(O)CO` [glycerol]: the “time constant of glycerol transport” value in data set [5] (14% cholesterol) is roughly 1 s; in data set [5] (40% cholesterol), “around 7 s”.
